The test system of assay [1] is Bacillus subtilis. In words: Antibacterial activity against Bacillus subtilis NBRC 3134 after overnight incubation by MTT assay. The format is functional. For orientation: Tetrazolium assays rely on reduction of a dye to a coloured formazan, in cell work by metabolically active cells.
For assay [2], the system named is Bacillus subtilis. In words: Inhibition of Bacillus subtilis N-terminal hexahistidine-tagged FtsZ GTPase activity expressed in Escherichia coli BL21 (DE3) at 100 uM after 1 hr relative to control.
The subject of assay [3] is Bacillus subtilis. In words: Inhibition of Bacillus subtilis N-terminal hexahistidine-tagged FtsZ GTPase activity expressed in Escherichia coli BL21 (DE3) assessed as residual activity at 100 uM after 1 hr relative to control.
For assay [4], the system named is Bacillus subtilis. Kind of assay: Inhibition of Bacillus subtilis N-terminal hexahistidine-tagged FtsZ GTPase activity expressed in Escherichia coli BL21 (DE3) assessed as residual activity at 20 uM after 1 hr relative to control.
In assay [5] the test system is Bacillus subtilis. Kind of assay: Inhibition of Bacillus subtilis N-terminal hexahistidine-tagged FtsZ GTPase activity expressed in Escherichia coli BL21 (DE3) assessed as residual activity at 200 uM after 1 hr relative to control.
Assay [6] in a line: Uncompetitive inhibition of Bacillus subtilis N-terminal hexahistidine-tagged FtsZ GTPase activity expressed in Escherichia coli BL21 (DE3) after 1 hr by Lineweaver-Burk plot analysis.
Assay [7] relates to Bacillus subtilis. In words: Inhibition of Bacillus subtilis N-terminal hexahistidine-tagged FtsZ V307R mutant GTPase activity expressed in Escherichia coli BL21 (DE3) after 1 hr relative to wild type protein. The following applies: concentration not given here.
The subject of assay [8] is Escherichia coli. In words: Inhibition of Escherichia coli N-terminal hexahistidine-tagged FtsZ GTPase activity expressed in Escherichia coli BL21 (DE3) assessed as residual activity at 100 uM after 1 hr relative to control.
For assay [9], the system named is Escherichia coli. In words: Inhibition of Escherichia coli N-terminal hexahistidine-tagged FtsZ GTPase activity expressed in Escherichia coli BL21 (DE3) assessed as residual activity at 20 uM after 1 hr relative to control.
The test system of assay [10] is Escherichia coli. In words: Inhibition of Escherichia coli N-terminal hexahistidine-tagged FtsZ GTPase activity expressed in Escherichia coli BL21 (DE3) assessed as residual activity at 200 uM after 1 hr relative to control.

The structures appear in SMILES notation. ≈ marks a conversion by molar mass, not a printed value.

Turning to `COc1cc2oc(-c3ccc(O)cc3O)cc2c(OC)c1CC=C(C)C`, in assay [1], the MIC (commonly the least concentration at which growth counts as inhibited) amounted to 5 µM (≈ 1.77 µg/mL). In assay [2], the fold change (FC) lay in the range of 0.8 to 7.7. In addition, the Activity in assay [3] stood at 10.1%; in [4], 37.4%; in assay [5], 10.1%; in assay [8], 63.2%; in assay [9] it was 88.4%. Besides, the Ki (commonly a measure of affinity in units of concentration, obtained from inhibition or displacement) in [6] amounted to 30.9 µM. Moreover, the inhibition – broadly, how much of the control response was suppressed – in [7] stood at 60%.
In turn, `NC[C@H]1O[C@H](O[C@H]2[C@H](O)[C@@H](O[C@H]3O[C@H](CO)[C@@H](O)[C@H](N)[C@H]3O)[C@H](N)C[C@@H]2N)[C@H](O)[C@@H](O)[C@@H]1O` [KANAMYCIN] yielded an MIC in [1] of less than 20 µM.
As for `COc1c(CC=C(C)C)c(O)cc(O)c1-c1coc2cc(O)ccc2c1=O`, the fold change (FC) in [2] is 0.8 to 7.7. Also, the Activity in assay [3] came out at 96.8%; in assay [4], 97.4%; in assay [5] it was 90.2%; in assay [8] it was 105%; in [10], 106%; in assay [9] it was 101%.
Turning to `CCN(CC)CCNc1nc(/C=C/c2ccc(Cl)cc2)nc2cc3ccccc3cc12`, the Activity is 12.6% in [3]; 75.3% in assay [4]; 8% in [5]; 12% in assay [8]; 7.7% in assay [10]; 57.7% in assay [9].
As for `CC(C)=CCc1cc(-c2coc3cc(O)cc(O)c3c2=O)cc(O)c1O`, the fold change (FC) in assay [2] lay in the range of 0.8 to 7.7. For the same compound, the Activity is 85.1% in [3]; 89.1% in assay [4]; 63.4% in assay [5]; 98.3% in [8]; 93.1% in assay [10]; 97.7% in assay [9].
Turning to `COc1c(CC=C(C)C)c(O)cc2oc(=O)c(-c3ccc(O)cc3O)cc12`, the fold change (FC) in assay [2] fell in the range of 0.8 to 7.7. The Activity was found to be 52.3% in [3]; 87.8% in assay [4]; 30.4% in assay [5]; 85.6% in [8]; 67.3% in assay [10]; 95.9% in assay [9].
As to `CC(C)=CCc1cc(-c2oc3cc(O)cc(O)c3c(=O)c2O)ccc1O` [ISOLICOFLAVONOL], inhibition of growth in assay [1] (MIC) required 40 µM (≈ 14.2 µg/mL). In assay [2], the fold change (FC) fell in the range of 0.8 to 7.7. Further, the Activity in assay [3] stood at 10.1%; in assay [4], 48.5%; in assay [5], 7.7%; in [8], 61.2%; in [9] it was 95.2%. In [6], this compound came in with a Ki of 37.7 µM. Also, the inhibition in assay [7] worked out at 60%.
Take `COc1c(CC=C(C)C)c(O)cc2oc(-c3ccc(O)cc3O)cc12`: in assay [2], the fold change (FC) lay within 0.8 to 7.7. Moreover, the Activity turned out to be 55.5% in assay [3]; 98.1% in assay [4]; 35.3% in assay [5]; 73.5% in assay [8]; 99.4% in [9].
Take `COc1cc2oc(=O)c(-c3ccc(O)cc3O)cc2c(OC)c1CC=C(C)C` [GLYCYRIN]: the MIC in assay [1] turned out to be 40 µM (≈ 15.3 µg/mL). Moreover, in assay [2], the fold change (FC) lay in the range of 0.8 to 7.7. The Activity stood at 17.5% in [3]; 74.4% in assay [4]; 17% in [5]; 87.8% in [8]; 88.6% in assay [10]; 103% in assay [9]. This compound displayed a Ki in assay [6] of 42.6 µM. In assay [7], this compound displayed an inhibition of 60%.
